Tests used:
mSult5a1 = experiment: FFA sulfoconjugation assay (N6-MF-A formation with adenosine as scavenger); assay type: biochemical, mouse
Protocol: (§1) Cytosolic fractions containing individual SULT forms were prepared from transgenic S. typhimurium TA1538. Table S1 in the Supplementary Material provides a summary of the thirty SULTs used in the current study together with references describing the cloning of the respective S. typhimurium TA1538 strains. The expressed SULT forms are denoted with the prefixes h, m and r for human, mouse and rat enzymes, respectively. Bacteria were grown in Luria Broth medium containing ampicillin (100 µg/ml) by stirring for 8 h at 200 revolutions/min at 37 °C. The bacterial suspensions were centrifuged at 5,000 g for 10 min. The sediments were washed twice with 25 ml of 10 mM potassium phosphate buffer (pH 7.4)/50 mM potassium chloride (KCP buffer) and centrifuged again. The pellets were taken up in 800 µl KCP buffer and sonicated thrice for 15 s with 30 s pauses in between. The soluble fraction was attained by centrifuging for 1 h at 100,000 g. The supernatants (in the following termed cytosolic preparations) were frozen at −80 °C. The protein concentrations were determined according to a bicinchoninic acid (BCA) assay protocol. The SULT concentrations in the cytosolic preparations were estimated after electrophoretic separation and immunodetection using inclusion bodies of different SULT forms as standards (Teubner et al. [2007]). The preparation of SULT inclusion bodies and the immunodetection of SULTs is described in the Supplementary Material, which also contains a representative immunoblot of different amounts of rSult1a1standard and a cytosolic preparation of S. typhimurium expressing rSult1a1 (Fig. S1).
(§2) The reaction mixtures were prepared as described for HMF. In addition, they contained 10 mM adenosine as a nucleophilic scavenger. Following incubation for 20 min at 37 °C, sulfoconjugation reactions were stopped by adding 100 µl cold methanol containing 175 fmol of [^15N5]N ^6-MF-A as the internal standard, mixed and centrifuged at 15,000 g for 10 min. The clear supernatants were subjected to UPLC-MS/MS analyses. Incubations were performed as quadruplicates. At higher concentrations, FFA reacts spontaneously with adenosine at low, but detectable, levels. To correct for the SULT-independent adduct formation, mixtures with SULT-deficient cytosols were carried along simultaneously in duplicate. Controls were subtracted from the experimental samples.
(§3) The ribonucleoside adduct N ^6-((furan-2-yl)methyl)-adenosine (N ^6-MF-A) was analyzed by isotope-dilution UPLC-MS/MS with the same system described above using a HSS T3 column (1.8 µm, 2.1 × 100 mm, Waters). Samples of 8 µl were eluted with 10 mM ammonium bicarbonate buffer, pH 8.0 (A) and methanol (B) using an 6-min gradient from 98 % solvent A to 15 % solvent A at 0.35 ml/min flow rate (Yin et al. [2013]). The electrospray interface of the mass spectrometer operated in the positive ion mode. The fragmentations of N ^6-MF-A into the aglycone cation [N ^6-((furan-2-yl)methyl)-adenine-H]^+ (m/z = 348.1 → 216.1), the cleavage of the 2-methylfuranyl cation (m/z = 348.1 → 81.0) and the release of [N ^6-methyl-adenine-H]^+ (m/z = 348.1 → 148.0) were monitored together with the corresponding fragmentations of the isotope-labeled internal standard [^15N5]N ^6-MF-A for the formation of the aglycone (m/z = 353.1 → 221.1), the 2-methylfuran cation (m/z = 353.1 → 81.0) and ^15N5-labeled N ^6-methyl-adenine (m/z = 353.1 → 153.0). The N ^6-MF-A content of the incubation mixture was calculated from the ratio of peak areas resulting from the total ion current of all three MRM signals of the analyte. For the fragmentation of N ^6-MF-A ([^15N5]N ^6-MF-A), collision energies were 20, 25 and 35 eV for the transitions m/z = 348.1 → 216.1 (m/z = 353.1 → 221.1), m/z = 348.1 → 148.0 (m/z = 353.1 → 153.0) and m/z = 348.1 → 81.0 (m/z = 353.1 → 81.0), respectively. […]

mSult2a3 = experiment: as above; assay type: biochemical, mouse
Protocol: as §1, §2, §3

rSult2a4 = experiment: HMF sulfoconjugation assay; assay type: biochemical, rat
Protocol: as §1
(§4) The reactions were conducted in mixtures of 100 µl containing 25–200 µg protein, 50 mM potassium phosphate buffer (pH 7.4), 5 mM MgCl2, 50 µM PAPS and different concentrations of HMF at 37 °C. Preliminary experiments ensured that measurements were recorded under ‘linear’ conditions, i.e., doubling of protein concentration or incubation time was doubling the amount of sulfate ester formed. The reactions were stopped after 30 min by adding 300 µl ice-cold 2-propanol, mixed and centrifuged at 15,000 g for 10 min.
(§5) SMF concentrations of the clear supernatants were analyzed by UPLC-MS/MS. The protocol was adapted from the quantification of SMF in plasma samples of HMF-treated mice (Monien et al. [2009]). In short, the supernatants were analyzed using a UPLC system (Waters) connected to a Quattro Premier XE tandem quadrupole mass spectrometer (Waters) using the negative electrospray ionization mode. Samples of 4 µl were injected into a HSS T3 column (1.8 µm, 2.1 × 100 mm; Waters) and eluted with an isocratic flow of 0.35 ml/min 10 mM ammonium acetate/methanol (95:5). The fragmentation reactions of SMF yielding two principal ions, the sulfate ion radical (m/z = 204.9 → 96.0) and the protonated sulfonate ion (m/z = 204.9 → 81.0) were monitored. The tune parameters were as follows: temperature of the electrospray source 120 °C; desolvation temperature 475 °C; desolvation gas nitrogen (800 l/h); cone gas nitrogen (100 l/h); collision gas argon (indicated cell pressure ~5 × 10^−3 mbar). For the fragmentation of SMF, collision energies were 20 and 23 eV for the transitions m/z = 204.9 → 81.0 and m/z = 204.9 → 96.0, respectively. The dwell time was set to 100 ms, and capillary voltage was set to 0.35 kV. The cone and RF1 lens voltages were 32 and 0.2 V, respectively. SMF was quantified using an external calibration line that was linear in the concentration range of 1.0 nM (4 fmol/injection) to 2,500 (10 pmol/injection) SMF (r ^2 ≥ 0.99). Data acquisition and handling were performed with MassLynx 4.1 software (Waters). The limit of detection (LOD) for this technique of 2.5 nM SMF has been reported (Monien et al. [2009]). In the current study, this corresponds to 10 fmol SMF per injection or a reaction rate of 0.5 pmol SMF/mg/min.

rSult2a3 = experiment: HMF sulfoconjugation assay; assay type: biochemical, rat
Protocol: as §1, §4, §5

| Structure (SMILES) | Rate of N6-MF-A formation (mSult5a1; 0.1 mM FFA) | Rate of N6-MF-A formation (mSult5a1; 1 mM FFA) | Rate of N6-MF-A formation (mSult5a1; 10 mM FFA) | Rate of N6-MF-A formation (mSult2a3; 0.1 mM FFA) | Rate of N6-MF-A formation (mSult2a3; 1 mM FFA) | Rate of N6-MF-A formation (mSult2a3; 10 mM FFA) | Rate of sulfoconjugation (rSult2a4; 0.1 mM HMF) | Rate of sulfoconjugation (rSult2a4; 1 mM HMF) | Rate of sulfoconjugation (rSult2a4; 10 mM HMF) | Rate of sulfoconjugation (rSult2a4; 100 mM HMF) | Rate of sulfoconjugation (rSult2a3; 0.1 mM HMF) | Rate of sulfoconjugation (rSult2a3; 1 mM HMF) | Rate of sulfoconjugation (rSult2a3; 10 mM HMF) | Rate of sulfoconjugation (rSult2a3; 100 mM HMF) |
| --- | --- | --- | --- | --- | --- | --- | --- | --- | --- | --- | --- | --- | --- | --- |
| OCc1ccco1 [FFA, furfuryl alcohol] | <18 fmol N ^6-MF-A/mg/min | <20 fmol N ^6-MF-A/mg/min | <44 fmol N ^6-MF-A/mg/min | <18 fmol N ^6-MF-A/mg/min | <20 fmol N ^6-MF-A/mg/min | <44 fmol N ^6-MF-A/mg/min | – | – | – | – | – | – | – | – |
| O=Cc1ccc(CO)o1 [HMF, 5-Hydroxymethylfurfural] | – | – | – | – | – | – | <0.5 pmol/mg/min | <0.5 pmol/mg/min | <0.5 pmol/mg/min | <0.5 pmol/mg/min | 0.6 ± 0.0 pmol/mg/min | 6.2 ± 0.2 pmol/mg/min | 62.8 ± 4.6 pmol/mg/min | 76.5 ± 8.8 pmol/mg/min |

Source: publication PMC4710668, “Bioactivation of food genotoxicants 5-hydroxymethylfurfural and furfuryl alcohol by sulfotransferases from human, mouse and rat: a comparative study” (Archives of Toxicology, 2014)
